Measured values from patent US8604048B2, “Pyridocarbazole type compounds and applications thereof” (Centre National de la Recherche Scientifique, priority 2009, dated 2013).

What was measured:
[1] = test system: Glu-tubulin signal in HeLa cells; assay: Glu-tubulin dose-effect, immunofluorescence in microplates; type: cell-based, Human; settings: 2 h, highest concentrations
Description: HeLa cells are seeded in black-bottomed black 96-well microplates (Greiner 655086) by distributing 90 μl per well of a cell solution containing 40 000 cells/ml, and incubated at 37° C. with 5% CO2. 24 h later, the cells are incubated with the molecules to be tested for 2 h at 37° C. with 5% CO2. The cells are then permeabilized with warm OPT buffer for 6 minutes at 37° C. then fixed in methanol for 10 minutes at room temperature. The cells are rinsed twice with PBS/0.1% Tween® 20 and incubated with the primary antibodies YL1/2 and L4 (cf. the antibodies from Table III) diluted to 1/4000 in a solution of PBS/0.3% BSA/0.02% NaN3 overnight at 37° C. […] The various fluorescence intensities are measured using the FLUOstar OPTIMA reader. […]
A dose-effect curve measuring the variation of the amount of Glu-tubulin was produced for Compound 1 of the invention. […] The fluorescence intensity was then measured using the microplate reader.
The percentage of the signal measured represents its distance relative to the control of bioactivity (paclitaxel (Taxol®)) and to the control of bioinactivity (DMSO). The EC50 was determined using KaleidaGraph® 3.60 software.

[2] = test system: mitochondria of HeLa cells; assay: Effect on location and morphology of the mitochondria (MitoTracker staining); type: cell-based, Human; settings: 2 h of treatment at 25 μM
Description: As for tubulin staining, the cells are grown on glass coverslips and incubated at 37° C. with 5% CO2. Three days after seeding, MitoTracker® Red CMXRos (Molecular Probes, Invitrogen) is added to the culture medium in order to reach a final concentration of 250 nM. The cells are then incubated for 30 minutes at 37° C. with 5% CO2. This marker passively diffuses through the plasma membrane and accumulates into the active mitochondria. After elimination of the medium, the cells are washed with warm medium then fixed by addition of a solution of PBS/3.7% formaldehyde for 30 minutes at 37° C. The cells are rinsed with PBS, then can be permeabilized with a solution of PBS/0.2% Triton X100 for 15 minutes at room temperature if other immunofluorescence staining are needed.

HeLa cells = assay: Cell growth test (MTT), HeLa; type: cell-based; settings: Homo sapiens, MTT test after 48 h, read-out: IC50 (concentration necessary to inhibit 50% of cell growth)
Description: The cell growth tests are carried out in transparent 96-well microplates (Greiner) after having seeded 100 μl/well of a cell solution having 2·10^5 cells/ml to 5·10^5 cells/ml (depending on the cell lines). After incubating for 24 h at 37° C. with 5% CO2, the culture medium is removed and replaced with solutions of the molecule to be tested at various concentrations. The cells are incubated with these molecules for an additional 48 h at 37° C. with 5% CO2. After elimination of the medium, the cells are washed with blank RPMI (Gibco, Invitrogen) then incubated with 3-(4,5-dimethylthiazol-2-yl)-2,5-diphenyltetrazolium bromide or MTT (0.5 mg/ml final concentration) for 4 h at 37° C. with 5% CO2. MTT (Sigma Aldrich) makes it possible to estimate the viability of the cells by measuring the activity of a mitochondrial enzyme. Indeed, in living cells, mitochondrial dehydrogenases are capable of cleaving the tetrazolium ring, thus leading to the formation of formazan crystals that are insoluble in an aqueous medium. These crystals are dissolved with the addition of a solubilizing solution (isopropanol, 10% Triton X100, 0.1 N HCl). After stirring, the absorbance is measured at 570 nm using the FLUOstar OPTIMA microplate reader. […]
The viability of the cells was evaluated using an MTT test after 48 h of exposure with various concentrations of molecules (from 100 μM to 0.001 μM). […]

[3] = test system: microtubules of HeLa cells; assay: Stability of microtubules at low temperature (4° C.); type: cell-based, Human; settings: 2 h with compound then 30 minutes at 4° C.
Description: FIG. 3 represents the effect of the Compound 1 of the invention on the stability of microtubules at low temperature. The HeLa cells are incubated with paclitaxel or without, with the Compound 1 of the invention, for 2 h, then exposed for 30 minutes at 4° C. The amount of tubulin in the cells treated with the Compound 1 of the invention is measured with a microplate reader, then reported as a percentage of the amount of tubulin measured in the wells containing the cells treated with paclitaxel (100%);
In the living cell, microtubules are dynamic structures, which oscillate between assembling and disassembling phases. Various types of tests may be carried out in order to assess the stabilizing effect of the molecules on the microtubule network. Thus, the binding of paclitaxel to the microtubules, or the binding of stabilizing proteins such as STOP proteins (Bosc et al., 2003) may protect the microtubule network from a depolymerization induced by an incubation of the cells at 4° C. Furthermore, molecules capable of slowing down the dynamics of the microtubules may be identified by analyzing the resistance of cell microtubules to a depolymerization induced by nocodazole. In the absence of a stabilizing compound, the microtubules depolymerize in the presence of nocodazole (FIG. 2). […]

Cc1c2cc[nH]c(=O)c2c(C)c2c1[nH]c1ccc(OC(=O)c3ccccc3)cc12 [Compound 1, 9-benzoyloxy-5,11-dimethyl-2H,6H-pyrido[4,3-b]carbazol-1-one]
Increase in the Glu signal relative to paclitaxel [1]: slightly smaller than that of paclitaxel | Mitochondrial phenotype of sodium azide type [2]: does not induce the mitochondrial phenotype | IC50 (HeLa cells): 1.21 µM | Protection of microtubules from cold-induced depolymerization [3]: not able to protect the microtubules
